Reference: patent EP1124556B1, “USE OF OPTICALLY PURE (R)-TOFISOPAM FOR TREATING AND PREVENTING ANXIETY DISORDERS” (priority 1998, dated 2000)
Several values for one entry are separate records, joined by “and”; a condition that tells them apart may be missing. Equal entries are not always repeated.

What was measured:
[1] = cited from earlier work
Male Long Evans rats = assay: Head-twitch response assay (potentiation of 5-MeODMT-induced head-twitches) for anxiolytic activity; format: in vivo; parameters: Score: scale not given here; conditions: for Head Twitch: one hour before interperitoneal 3mg/kg 5-MeODMT, number of head-twitches over 1-5 minute period post injection, individual rats No. 1-3; for Score: group of 3 rats
Method: Dry preparations of tofisopam, R-tofisopam or S-tofisopam were dissolved in 2% Tween 80/5% DMSO for oral administration in a blind assay. Diazepam (Sigma, U.S.A.) was similarly dissolved in DMSO (Merck, Germany), distilled water and Tween 80 (Wako Pure Industries, Ltd., Japan).
Male Long Evans rats provided by animal breeding center of MDS Panlabs Taiwan, Ltd., were used. Space allocation for animals was as follows: 45 x 23 x 15 cm for 6 rats. Rats were housed in APEC® (Allentown Gaging, Allentown, NJ 08501, U.S.A.) cages in a positive pressure isolator (NuAire® , Mode: Nu-605, airflow velocity 50± 5 ft/min, HEPA Filter). All animals were maintained in a controlled temperature (22°C - 24°C) and humidity (60% - 80%) environment with 12 hours light dark cycles for at least one week in MDS Panlabs Taiwan laboratory prior to being used. Free access to standard lab chow for rats (Fwusow Industry Co., Limited, Taiwan) and tap water was granted. All aspects of this work including housing, experimentation and disposal of animals were performed in general accordance with the International Guiding Principles for Biomedical Research Involving Animals (CIOMS Publication No. ISBN 92 90360194, 1985).
Moser, P.C., "The Effect of Novel Axiolytics on the Head-Twitch Response in Mice" British J. Pharmacol Suppl. 99:248P (1990) . Based on those assays, test substances were administered orally to the rats one hour before interperitoneal injection of 3mg/kg 5-MeODMT. The number of head-twitches over a 1-5 minute period post injection were recorded (Table 1).

benzodiazepine receptor = conditions: cited from earlier work
patients = conditions: cited from earlier work
[2] = in vivo; cited from earlier work
site II of HSA = site II of HSA (Homo sapiens, UniProt P02768); conditions: cited from earlier work
[3] = Conformer interconversion in solution; format: physicochemical
Method: The enantiomers of tofisopam were resolved by chiral chromatography. For example, tofisopam (42.8mg dissolved in acetonitrile) was loaded onto a Chirobiotic V column (ASTEC, Whippany, NJ). Elution of the compounds with MTBE/ACN 90/10 (v/v), 40ml/min, was monitored at 310nm, 2mm path. The R(+) enantiomer was the first compound to elute from the column. The R(+) enantiomer was collected, dried and stored for use in biological assays. R(-)-tofisopam ("A" ' ) , S (-/+) tofisopam ("B" and "B' ") , and residual R(+)-tofisopam ("A") co-eluted and was collected in a subsequent fraction (e.g., FIG. 1, fraction 2). Approximately 20% of the R(+)-tofisopam in fraction 1 is converted into R(-)-tofisopam if left in solution for 24 hours. A 80/20 stable equilibrium (R+/R-) was observed between the two conformers in MTBE/ACN (90/10) solution at room temperature.

dopamine (D2L) receptor = dopamine (D2L) receptor (Homo sapiens, UniProt P14416); assay: Dopamine receptor binding (preliminary results)
Chain of dopamine (D2L) receptor (P14416 whole entry): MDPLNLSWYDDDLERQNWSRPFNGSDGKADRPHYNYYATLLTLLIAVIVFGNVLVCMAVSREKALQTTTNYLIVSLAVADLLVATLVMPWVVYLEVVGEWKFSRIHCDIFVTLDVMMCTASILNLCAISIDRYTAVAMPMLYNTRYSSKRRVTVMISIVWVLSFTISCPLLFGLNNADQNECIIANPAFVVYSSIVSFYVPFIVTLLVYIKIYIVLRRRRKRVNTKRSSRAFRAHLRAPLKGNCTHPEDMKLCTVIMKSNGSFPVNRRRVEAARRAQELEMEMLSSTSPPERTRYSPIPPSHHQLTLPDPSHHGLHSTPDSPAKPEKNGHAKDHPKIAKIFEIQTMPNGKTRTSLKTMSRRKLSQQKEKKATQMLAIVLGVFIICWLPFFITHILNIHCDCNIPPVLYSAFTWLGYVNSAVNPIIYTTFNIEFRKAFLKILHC

Chain of site II of HSA (P02768 25-609): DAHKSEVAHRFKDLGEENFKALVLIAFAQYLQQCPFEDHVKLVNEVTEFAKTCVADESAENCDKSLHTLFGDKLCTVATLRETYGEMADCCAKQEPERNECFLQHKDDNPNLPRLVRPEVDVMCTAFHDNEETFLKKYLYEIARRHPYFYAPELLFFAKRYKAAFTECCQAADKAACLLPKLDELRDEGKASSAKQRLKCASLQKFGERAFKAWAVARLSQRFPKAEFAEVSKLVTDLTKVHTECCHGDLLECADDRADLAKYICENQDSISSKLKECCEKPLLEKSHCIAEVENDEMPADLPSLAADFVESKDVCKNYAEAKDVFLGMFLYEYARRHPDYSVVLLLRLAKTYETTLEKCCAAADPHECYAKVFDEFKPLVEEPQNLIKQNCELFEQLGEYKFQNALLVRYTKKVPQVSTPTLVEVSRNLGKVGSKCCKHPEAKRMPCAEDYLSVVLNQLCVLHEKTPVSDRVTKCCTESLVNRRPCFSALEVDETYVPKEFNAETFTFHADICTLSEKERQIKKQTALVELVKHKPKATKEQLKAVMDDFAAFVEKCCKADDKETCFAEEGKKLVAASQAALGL

Which “solubility relative to its separate isomers” value [1] does the source give for `O=C1CCC(N2C(=O)c3ccccc3C2=O)C(=O)N1` (racemic) [racemic thalidomide] here?
Its value is “ten times less soluble”.

For `CCC1C(C)=NN=C(c2ccc(OC)c(OC)c2)c2cc(OC)c(OC)cc21` (racemic) [tofisopam, 1-(3,4-dimethoxy-phenyl) - 4-methyl-5-ethyl-7,8-dimethoxy-5H-2,3-benzodiazepine], which “Head Twitch” value (Male Long Evans rats; PO 30 mg/kg) is on record?
Its value is 0.

And the Score (Male Long Evans rats; PO 30 mg/kg)?
The Score was 0.

What about the “binding to the benzodiazepine receptor” value (benzodiazepine receptor) of the same compound?
Its value is “does not bind to the benzodiazepine receptor”.

And the “binding of BDZs to their receptors” value (benzodiazepine receptor; in vivo and in vitro, after acute and chronic treatment)?
Its value is “enhances the binding of BDZs to their receptors”.

And the “patients reporting side effects during treatment” value (patients; double-blind study, 4 weeks, 57 outpatients with anxiety and depression)?
The value was “twenty-one”.

What about the anxiolytic effect (patients; multicenter study, 325 patients, 3 weeks, 150-1300 mg/day) of the same compound?
The anxiolytic effect was “effective anxiolytic”.

What about the “anticonvulsive, muscle relaxant or sedative effects” value [2] of the same compound?
Its value is “not have anticonvulsive, muscle relaxant or sedative effects”.

For `CN1C(=O)CN=C(c2ccccc2)c2cc(Cl)ccc21` [Diazepam], which “Head Twitch” value (Male Long Evans rats; PO 10 mg/kg) is on record?
Its value is 5 and 1 and 9.

And the Score (Male Long Evans rats; PO 10 mg/kg)?
Its Score is 2.

With `N[C@@H](Cc1c[nH]c2ccccc12)C(=O)O` [L-Tryptophan] as the compound, how does the “affinity for site II of HSA relative to the other enantiomer” value (site II of HSA) read?
The value was “about 100 times”.

What does the source list for `CC[C@H]1C(C)=NN=C(c2ccc(OC)c(OC)c2)c2cc(OC)c(OC)cc21` [R(+)-tofisopam]?
stable equilibrium (R+/R-) ([3]; MTBE/ACN (90/10) solution at room temperature): 80/20; converted into R(-)-tofisopam ([3]; left in solution for 24 hours): Approximately 20%

For `CC[C@H]1C(C)=NN=C(c2ccc(OC)c(OC)c2)c2cc(OC)c(OC)cc21` [R-tofisopam, R-1-(3,4-dimethoxyphenyl)-5-ethyl-7,8-dimethoxy-4-methyl-5H-2,3-benzodiazepine], which “Head Twitch” value (Male Long Evans rats; PO 30 mg/kg) is on record?
Its value is 0 and 2 and 1.

What about the Score (Male Long Evans rats; PO 30 mg/kg) of the same compound?
Its Score is 1.

What about the “side effects related to binding to the dopamine (D2L) receptor” value (dopamine (D2L) receptor) of the same compound?
The value was “cannot manifest side effects related to binding to the dopamine (D2L) receptor”.

What does the source list for `CC[C@@H]1C(C)=NN=C(c2ccc(OC)c(OC)c2)c2cc(OC)c(OC)cc21` [S-tofisopam]?
Head Twitch (Male Long Evans rats; PO 30 mg/kg): 0; Score (Male Long Evans rats; PO 30 mg/kg): 0
